Experimental data taken from patent publication US7081524B2, “O2-substituted 1-[(2-carboxylato)pyrrolidin-1-yl]diazen-1-ium-1,2-diolates” (The United States of America as represented by the …, priority 1996, dated 2006).
One block for each compound: values may come before it.

Tests used:
[1] = Cleavage of O2-glucopyranosyl diazeniumdiolate to DEA/NO anion and NO as a function of pH; assay type: physicochemical
[2] = tested on: glutathione S-transferase (GST); conditions: FIG. 2
[3] = tested on: porcine liver esterase; test: Decay in the presence of porcine liver esterase; assay type: in vitro ADME; conditions: 25° C., phosphate buffer pH 7.4, porcine liver esterase suspension added
Procedure: This example describes the determination of the halflife of the Compound produced in Example 24 in the absence and presence of porcine liver esterase at 25° C. and pH 7.4.
A 0.009 M ethanolic stock solution of O2—[S-acetyl-(2-mercaptoethyl)]1-[(2-carboxylato)pyrrolidin-1-yl]diazen-1-ium-1,2-diolate [S-acetyl-(2-mercapto-ethyl)]ester was prepared. The decay of this compound was monitored at 25° C. as 1.5×10^−4 M solutions in a 4 ml quartz cuvette containing 3 ml of phosphate buffer (pH 7.4) and […] of stock solution. The decay of the 232 nm chromophore was monitored on the ultraviolet spectrophotometer. The halflife was estimated as 3.2 hr.
A second set of experiments was carried out using the above parameters to measure the decay after addition of 5 ml of porcine liver esterase suspension. The half-life for the esterase reaction was 8 min at 25° C.

[4] = Kinetics of reaction with sodium methoxide in methanol (HPLC); assay type: physicochemical; conditions: reaction with excess NaOMe in methanol; disappearance monitored by HPLC
Text: This Example illustrates the kinetics of reaction of O^2-(2,4-dinitrophenyl) 1-(N,N-diethylamino)diazen-1-ium-1,2-diolate with sodium methoxide in methanol. The kinetics of this reaction show the rate of conversion of O^2-(2,4-dinitrophenyl) 1-(N,N-diethylamino)diazen-1-ium-1,2-diolate to 1-(N,N-diethylamino)diazen-1-ium-1,2-diolate ion in alkaline or nucleophilic environments.
An excess of NaOMe was used in the reactions; aliquots were collected at intervals and quenched with 0.1 N HCl in methanol. […] This was determined by plotting log[O^2-(2,4-dinitrophenyl) 1-(N,N-diethylamino)diazen-1-ium-1,2-diolate] vs. time to find kobs′ at four different concentrations of NaOMe.

[5] = tested on: glutathione S-transferase; test: Glutathione S-transferase kinetics (UV absorbance at 380 nm); assay type: biochemical; conditions: 25° C., 0.1 M phosphate buffer pH 7.4, enzyme 0.7 μg/ml, glutathione 1.4 mM, diazeniumdiolate 50–100 μM
Text: The following examples further illustrate the present invention and, of course, should not be construed as in any way limiting its scope. With respect to the following examples, NO was obtained from Matheson Gas Products (Montgomeryville, Pa.), β- and α-glycosidases and porcine liver esterase were obtained from Sigma Chemical Co. (St, Louis, Mo.), polyurethane (Tecoflex) was obtained from Thermedics Inc. (Woburn, Mass.), and glucose and mannose were obtained from Aldrich Chemical Co. (Milwaukee, Wis.). Proton NMR spectra were recorded with a 300 MHz Varian Unity Plus or a Varian XL-200 NMR spectrometer. Spectra were obtained in deuterochloroform for covalent compounds and in D2O for salts. Chemical shifts are reported in parts per million (ppm) downfield from TMS. Low and high resolution mass spectral (MS) measurements were carried out on a VG-Micromass Model 7070 spectrometer. Unless otherwise indicated, MS data were collected in the electron impact mode with sample introduction via direct probe. Ultraviolet (UV) spectra were run as solutions in water or 0.01 M NaOH on an HP 8451A Diode Array spectrophotometer. Glutathione S-transferase kinetics were monitored by measuring the change in UV absorbance at 380 nm with a Beckman DU 640 spectrophotometer. Chemiluminescence measurements were done on a Thermal Energy Analyzer Model 502A instrument (Thermedics, Inc., Woburn, Mass.). […]

[6] = NO release in the presence or absence of glutathione, chemiluminescence; conditions: 37° C.
Procedure: This Example illustrates the regeneration of NO from O^2-(2,4-dinitrophenyl) 1-(N,N-diethylamino)diazen-1-ium-1,2-diolate in the presence, but not the absence, of glutathione.
A solution containing 1 mM glutathione (GSH) in 10 mM phosphate buffer was degassed by purging with argon for 10 min, whereupon a 3 ml aliquot was mixed with 3 μl of a dioxane solution that was 2 mM in O^2-(2,4-dinitrophenyl) 1-(N,N-diethylamino)diazen-1-ium-1,2-diolate. NO release was monitored by chemiluminescence while the mixture was held at 37° C. […] Total NO generation during the first 112 min was approximately 9 nmol. Assuming that […] of NO is generated per mol of O^2-(2,4-dinitrophenyl) 1-(N,N-diethylamino)diazen-1-ium-1,2-diolate, this 9 nmol corresponds to roughly 75% of the theoretical yield.
The nucleophilic glutathione reacted with the O^2-(2,4-dinitrophenyl) 1-(N,N-diethylamino)diazen-1-ium-1,2-diolate to produce NO according to the equation shown below.

[7] = 1 mM GSH in 10 mM phosphate buffer

Compound: O=[N+]([O-])c1ccc(ON=[N+]([O-])N2CCCC2)c([N+](=O)[O-])c1 [Example 8, O^2-(2,4-dinitrophenyl) 1-(pyrrolidin-1-yl)diazen-1-ium-1,2-diolate]
relative NO release rate versus time with GST [2]: catalysis of NO release

Compound: CCN(CC)[N+]([O-])=NOc1ccc([N+](=O)[O-])cc1[N+](=O)[O-] [Example 1, O^2-(2,4-dinitrophenyl) 1-(N,N-diethylamino)diazen-1-ium-1,2-diolate]
second-order rate constant [4]: 0.131 M⁻¹ s⁻¹
Km [5]: 46.3 µM
Vmax [5]: 0.89 µM/min
time NO generation continued at readily detectable levels [6, 7]: approximately 100 minutes
time of peak nitric oxide generation after reaction was initiated [6, 7]: approximately 15 minutes
total NO generation during the first 112 min ([6]; 1 mM GSH in 10 mM phosphate buffer, 3 μl of 2 mM solution in 3 ml): approximately 9 nmol
NO generated as share of the theoretical yield ([6]; 1 mM GSH, first 112 min): roughly 75%
NO generation with exclusion of the GSH ([6]; 10 mM phosphate buffer, no GSH): no NO generation was observed

Other lines, results leading:

cleavage to DEA/NO anion, then to NO ([1]; pH 3): only extremely slowly
cleavage to DEA/NO anion, then to NO ([1]; pH 13): extremely rapidly
Compound: CCN(CC)[N+]([O-])=NOC1O[C@H](CO)[C@@H](O)[C@H](O)[C@H]1O (stereo partly shown) [Example 31, O^2-glucopyranosyl 1-(N,N-diethylamino)diazen-1-ium-1,2-diolate]

melting point: 250 °C (dec.)
Compound: O=C([O-])C1CCCN1[N+]([O-])=N[O-].[Na+].[Na+] (stereo not shown) [Example 19, disodium 1-[(2-carboxylato)pyrrolidin-1-yl]diazen-1-ium-1,2-diolate]

half-life for the esterase reaction [3]: 8 min
Compound: CC(=O)SCCON=[N+]([O-])N1CCCC1C(=O)OCCSC(C)=O (stereo not shown) [Example 24, O^2—[S-acetyl-(2-mercaptoethyl)]1-[(2-carboxylato)pyrrolidin-1-yl]diazen-1-ium-1,2-diolate [S-acetyl-(2-mercaptoethyl)]ester]
